Measured values from PubChem BioAssay (NCI).
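The concentration for 50% growth inhibition is given as GI50. TGI marks complete inhibition of growth.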

Legend:
Test in all cases: growth of human tumour cells (NCI), 384-well format
786-0 renal = tested on: 786-0 renal
A498 renal = tested on: A498 renal
A549 NSCLC = tested on: A549 NSCLC
ACHN renal = tested on: ACHN renal
CAKI-1 renal = tested on: CAKI-1 renal
CCRF-CEM leukemia = tested on: CCRF-CEM leukemia
COLO 205 colon = tested on: COLO 205 colon
DU-145 prostate = tested on: DU-145 prostate
HCC-2998 colon = tested on: HCC-2998 colon
HCT-116 colon = tested on: HCT-116 colon
HCT-15 colon = tested on: HCT-15 colon
HL-60(TB) leukemia = tested on: HL-60(TB) leukemia
HOP-62 NSCLC = tested on: HOP-62 NSCLC
HOP-92 NSCLC = tested on: HOP-92 NSCLC
HT29 colon = tested on: HT29 colon
IGROV1 ovarian = tested on: IGROV1 ovarian
K-562 leukemia = tested on: K-562 leukemia
KM12 colon = tested on: KM12 colon
LOX IMVI melanoma = tested on: LOX IMVI melanoma
M14 melanoma = tested on: M14 melanoma
MALME-3M melanoma = tested on: MALME-3M melanoma
MCF7 breast = tested on: MCF7 breast
MDA-MB-231 breast = tested on: MDA-MB-231 breast
MDA-MB-435 melanoma = tested on: MDA-MB-435 melanoma
MDA-MB-468 breast = tested on: MDA-MB-468 breast
MOLT-4 leukemia = tested on: MOLT-4 leukemia
NCI-H226 lung = tested on: NCI-H226 lung
NCI-H23 lung = tested on: NCI-H23 lung
NCI-H322M lung = tested on: NCI-H322M lung
NCI-H460 NSCLC = tested on: NCI-H460 NSCLC
NCI-H522 lung = tested on: NCI-H522 lung
NCI/ADR-RES ovarian = tested on: NCI/ADR-RES ovarian
OVCAR-3 ovarian = tested on: OVCAR-3 ovarian
OVCAR-4 ovarian = tested on: OVCAR-4 ovarian
OVCAR-5 ovarian = tested on: OVCAR-5 ovarian
OVCAR-8 ovarian = tested on: OVCAR-8 ovarian
PC-3 prostate = tested on: PC-3 prostate
RPMI-8226 leukemia = tested on: RPMI-8226 leukemia
RXF 393 renal = tested on: RXF 393 renal
SF-268 CNS = tested on: SF-268 CNS
SF-295 CNS = tested on: SF-295 CNS
SF-539 CNS = tested on: SF-539 CNS
SK-MEL-2 melanoma = tested on: SK-MEL-2 melanoma
SK-MEL-28 melanoma = tested on: SK-MEL-28 melanoma
SK-MEL-5 melanoma = tested on: SK-MEL-5 melanoma
SN12C renal = tested on: SN12C renal
SNB-19 CNS = tested on: SNB-19 CNS
SR leukemia = tested on: SR leukemia
SW-620 colon = tested on: SW-620 colon
T-47D breast = tested on: T-47D breast
TK-10 renal = tested on: TK-10 renal
U251 glioblastoma = tested on: U251 glioblastoma
UACC-257 melanoma = tested on: UACC-257 melanoma
UACC-62 melanoma = tested on: UACC-62 melanoma
UO-31 renal = tested on: UO-31 renal

For CN[C@@H](C)C(=O)N[C@H]1CN(S(=O)(=O)c2cccc(S(=O)(=O)N3CC[C@H]4CC[C@@H](C(=O)NC(c5ccccc5)c5ccccc5)N4C(=O)[C@@H](NC(=O)[C@H](C)NC)C3)c2)CC[C@H]2CC[C@@H](C(=O)NC(c3ccccc3)c3ccccc3)N2C1=O, the GI50 ([…]-0 renal) was 23.5 µM, the TGI (786-0 renal) was 62.8 µM and the GI50 (A498 renal) was 35.8 µM. It also gave a TGI (A498 renal) greater than 100 µM, a GI50 (A549 NSCLC) of 46.6 µM and a TGI (A549 NSCLC) greater than 100 µM. It also gave a GI50 (ACHN renal) greater than 100 µM, a TGI (ACHN renal) greater than 100 µM and a GI50 (CAKI-1 renal) greater than 100 µM. It also gave a TGI (CAKI-1 renal) greater than 100 µM, a GI50 (CCRF-CEM leukemia) of 0.0133 µM and a TGI (CCRF-CEM leukemia) of 1.46 µM. For the same molecule, the GI50 (COLO 205 colon) was 12.5 µM, the TGI (COLO 205 colon) was 26 µM and the GI50 (DU-145 prostate) was 2.3 µM. It also gave a TGI (DU-145 prostate) of 16.7 µM, a GI50 (HCC-2998 colon) of 11.7 µM and a TGI (HCC-2998 colon) of 24 µM. For the same molecule, the GI50 (HCT-116 colon) was 23.7 µM, the TGI (HCT-116 colon) was 87.5 µM and the GI50 (HCT-15 colon) was greater than 100 µM. For the same molecule, the TGI (HCT-15 colon) was greater than 100 µM, the GI50 (HL-60(TB) leukemia) was less than 0.01 µM and the TGI (HL-60(TB) leukemia) was less than 0.01 µM. It also gave a GI50 (HOP-62 NSCLC) of 0.57 µM, a TGI (HOP-62 NSCLC) of 4.56 µM and a GI50 (HOP-92 NSCLC) of 0.242 µM. It also gave a TGI (HOP-92 NSCLC) of 2.69 µM, a GI50 (HT29 colon) of 16 µM and a TGI (HT29 colon) of 35.7 µM. For the same molecule, the GI50 (IGROV1 ovarian) was 16.1 µM, the TGI (IGROV1 ovarian) was 30.3 µM and the GI50 (K-562 leukemia) was 4.42 µM. It also gave a TGI (K-562 leukemia) of 22.4 µM, a GI50 (KM12 colon) of 12.4 µM and a TGI (KM12 colon) of 24.9 µM. The GI50 (LOX IMVI melanoma) was 13 µM, the TGI (LOX IMVI melanoma) was 25.7 µM and the GI50 (M14 melanoma) was 20.3 µM. For the same molecule, the TGI (M14 melanoma) was 44.9 µM, the GI50 (MALME-3M melanoma) was less than 0.01 µM and the TGI (MALME-3M melanoma) was 0.0336 µM. It also gave a GI50 (MCF7 breast) of 1.84 µM, a TGI (MCF7 breast) of 5.7 µM and a GI50 (MDA-MB-231 breast) of less than 0.01 µM. The TGI (MDA-MB-231 breast) was less than 0.01 µM, the GI50 (MDA-MB-435 melanoma) was 0.0478 µM and the TGI (MDA-MB-435 melanoma) was 16.8 µM. It also gave a GI50 (MDA-MB-468 breast) of less than 0.01 µM, a TGI (MDA-MB-468 breast) of 0.0196 µM and a GI50 (MOLT-4 leukemia) of 6.56 µM. It also gave a TGI (MOLT-4 leukemia) of 18.6 µM, a GI50 (NCI-H226 lung) of 17.4 µM and a TGI (NCI-H226 lung) of 47.7 µM. The GI50 (NCI-H23 lung) was 0.0315 µM, the TGI (NCI-H23 lung) was 0.459 µM and the GI50 (NCI-H322M lung) was 16.6 µM. For the same molecule, the TGI (NCI-H322M lung) was 30.3 µM, the GI50 (NCI-H460 NSCLC) was 11.2 µM and the TGI (NCI-H460 NSCLC) was 25.5 µM. It also gave a GI50 (NCI-H522 lung) of 0.0634 µM, a TGI (NCI-H522 lung) of 2.93 µM and a GI50 (NCI/ADR-RES ovarian) of 46.1 µM. The TGI (NCI/ADR-RES ovarian) was greater than 100 µM, the GI50 (OVCAR-3 ovarian) was 2.17 µM and the TGI (OVCAR-3 ovarian) was 17.6 µM. For the same molecule, the GI50 (OVCAR-4 ovarian) was less than 0.01 µM, the TGI (OVCAR-4 ovarian) was less than 0.01 µM and the GI50 (OVCAR-5 ovarian) was 19.1 µM. For the same molecule, the TGI (OVCAR-5 ovarian) was 34.8 µM, the GI50 (OVCAR-8 ovarian) was 2.24 µM and the TGI (OVCAR-8 ovarian) was 19.3 µM. It also gave a GI50 (PC-3 prostate) of 15.5 µM, a TGI (PC-3 prostate) of 28.9 µM and a GI50 (RPMI-8226 leukemia) of 0.0326 µM. It also gave a TGI (RPMI-8226 leukemia) of 1.23 µM, a GI50 (RXF 393 renal) of less than 0.01 µM and a TGI (RXF 393 renal) of 0.073 µM. It also gave a GI50 (SF-268 CNS) of 13.2 µM, a TGI (SF-268 CNS) of 26 µM and a GI50 (SF-295 CNS) of 11 µM. It also gave a TGI (SF-295 CNS) of 23.6 µM, a GI50 (SF-539 CNS) of 16.6 µM and a TGI (SF-539 CNS) of 30.2 µM. It also gave a GI50 (SK-MEL-2 melanoma) of less than 0.01 µM, a TGI (SK-MEL-2 melanoma) of less than 0.01 µM and a GI50 (SK-MEL-28 melanoma) of 12.6 µM. It also gave a TGI (SK-MEL-28 melanoma) of 25.2 µM, a GI50 (SK-MEL-5 melanoma) of 0.11 µM and a TGI (SK-MEL-5 melanoma) of 0.422 µM. It also gave a GI50 (SN12C renal) of 20.8 µM, a TGI (SN12C renal) of 37.3 µM and a GI50 (SNB-19 CNS) of 16.6 µM. The TGI (SNB-19 CNS) was 30.2 µM, the GI50 (SR leukemia) was 0.0253 µM and the TGI (SR leukemia) was 2.82 µM. The GI50 (SW-620 colon) was 37.7 µM, the TGI (SW-620 colon) was greater than 100 µM and the GI50 (T-47D breast) was 13.8 µM. For the same molecule, the TGI (T-47D breast) was 28 µM, the GI50 (TK-10 renal) was 44 µM and the TGI (TK-10 renal) was greater than 100 µM. It also gave a GI50 (U251 glioblastoma) of 12.6 µM, a TGI (U251 glioblastoma) of 25.9 µM and a GI50 (UACC-257 melanoma) of 11.7 µM. The TGI (UACC-257 melanoma) was 24.4 µM, the GI50 (UACC-62 melanoma) was 13.9 µM and the TGI (UACC-62 melanoma) was 27.5 µM. It also gave a GI50 (UO-31 renal) of 76 µM and a TGI (UO-31 renal) greater than 100 µM.
